Where a name gives a salt, the structure may show the parent alone.
Molecular target: T1, human LPA1 (Homo sapiens, UniProt Q92633)
T1 construct: expressed in transfected cells; host or cells: Chinese hamster ovary (CHO) cells
Assay: LPA1 functional antagonist assay (calcium flux)
Assay type: cell-based
Details: CHO cells overexpressing human LPA1; inhibition of calcium flux induced by 10 nM LPA; read-out: hLPA1 IC50
Method in brief: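 Dye-loaded CHO cells overexpressing human LPA1 (30 min, 37 °C) were preincubated 20 min at room temperature with compound (0.08 nM–5 μM; 0.5% DMSO; HBSS, 20 mM HEPES, 0.1% fatty-acid-free BSA), then stimulated with 10 nM LPA. IC50 is the concentration inhibiting 50% of LPA-induced calcium flux, from a 4-parameter logistic fit.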

T1 sequence (Q92633 whole entry): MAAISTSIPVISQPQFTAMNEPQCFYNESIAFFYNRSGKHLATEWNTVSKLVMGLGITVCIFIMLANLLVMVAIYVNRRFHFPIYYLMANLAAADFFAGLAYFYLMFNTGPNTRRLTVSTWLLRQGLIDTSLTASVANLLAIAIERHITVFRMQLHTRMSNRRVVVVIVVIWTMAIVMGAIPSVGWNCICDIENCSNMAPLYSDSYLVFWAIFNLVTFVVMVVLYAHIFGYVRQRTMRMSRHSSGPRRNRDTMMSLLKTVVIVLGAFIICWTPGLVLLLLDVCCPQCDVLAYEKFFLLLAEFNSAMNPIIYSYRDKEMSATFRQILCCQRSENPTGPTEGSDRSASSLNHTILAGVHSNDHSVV

## Cc1nc(-c2nnn(C)c2CNc2ncnc(C3CC3)n2)ccc1O[C@H]1CCC[C@H](C(=O)O)C1 [Example 187, (1S,3S)-3-((6-(5-(((4-Cyclopropyl-1,3,5-triazin-2-yl)amino)methyl)-1-methyl-1H-1,2,3-triazol-4-yl)-2-methylpyridin-3-yl)oxy)cyclohexane-1-carboxylic acid, bis TFA Salt]
  IC50: 48 nM

## Cc1nc(NCc2c(-c3ccc(O[C@H]4CCC[C@H](C(=O)O)C4)c(C)n3)nnn2C)nc(C2CC2)n1 [Example 188, (1S,3S)-3-((6-(5-(((4-Cyclopropyl-6-methyl-1,3,5-triazin-2-yl)amino)methyl)-1-methyl-1H-1,2,3-triazol-4-yl)-2-methylpyridin-3-yl)oxy)cyclohexane-1-carboxylic acid, bis TFA Salt]
  IC50: 138 nM

## CCCCc1cnnc(NCc2c(-c3ccc(O[C@H]4CCC[C@H](C(=O)O)C4)c(C)n3)nnn2C)c1 [Example 189, (1S,3S)-3-((6-(5-(((5-Butylpyridazin-3-yl)amino)methyl)-1-methyl-1H-1,2,3-triazol-4-yl)-2-methylpyridin-3-yl)oxy)cyclohexane-1-carboxylic acid, bis TFA salt]
  IC50: 108 nM

## Cc1nc(-c2nnn(C)c2CNc2cc(OC3CCC3)cnn2)ccc1O[C@H]1CCC[C@H](C(=O)O)C1 [Example 190, (1S,3S)-3-((6-(5-(((5-Cyclobutoxypyridazin-3-yl)amino)methyl)-1-methyl-1H-1,2,3-triazol-4-yl)-2-methylpyridin-3-yl)oxy)cyclohexane-1-carboxylic acid, bis TFA Salt]
  IC50: 187 nM

## Cc1nc(-c2nnn(C)c2CNc2nnccc2OC2CCC2)ccc1O[C@H]1CCC[C@H](C(=O)O)C1 [Example 191, (1S,3S)-3-((6-(5-(((4-Cyclobutoxypyridazin-3-yl)amino)methyl)-1-methyl-1H-1,2,3-triazol-4-yl)-2-methylpyridin-3-yl)oxy)cyclohexane-1-carboxylic acid, bis TFA Salt]
  IC50: 103 nM

## Cc1nc(-c2nnn(C)c2CNc2nncc(-c3ccccc3)n2)ccc1O[C@H]1CCC[C@H](C(=O)O)C1 [Example 192, (1S,3S)-3-((2-Methyl-6-(1-methyl-5-(((5-phenyl-1,2,4-triazin-3-yl)amino)methyl)-1H-1,2,3-triazol-4-yl)pyridin-3-yl)oxy)cyclohexane-1-carboxylic acid, bis TFA Salt]
  IC50: 53 nM

## CCCCc1cnnc(NCc2c(-c3ccc(O[C@H]4CCC[C@H](C(=O)O)C4)c(C)n3)nnn2C)n1 [Example 193, (1S,3S)-3-((6-(5-(((5-Butyl-1,2,4-triazin-3-yl)amino)methyl)-1-methyl-1H-1,2,3-triazol-4-yl)-2-methylpyridin-3-yl)oxy)cyclohexane-1-carboxylic acid, bis TFA]
  IC50: 6.8 nM

## CCc1ncnc(NCc2c(-c3ccc(O[C@H]4CCC[C@H](C(=O)O)C4)c(C)n3)nnn2C)n1 [Example 194, (1S,3S)-3-((6-(5-(((4-Ethyl-1,3,5-triazin-2-yl)amino)methyl)-1-methyl-1H-1,2,3-triazol-4-yl)-2-methyl-pyridin-3-yl)oxy)cyclohexane-1-carboxylic acid]
  IC50: 63 nM

## CCCc1ncnc(NCc2c(-c3ccc(O[C@H]4CCC[C@H](C(=O)O)C4)c(C)n3)nnn2C)n1 [Example 195, (1S,3S)-3-((2-Methyl-6-(1-methyl-5-(((4-propyl-1,3,5-triazin-2-yl)amino)methyl)-1H-1,2,3-triazol-4-yl)pyridin-3-yl)oxy)cyclohexane-1-carboxylic acid]
  IC50: 225 nM

## Cc1ncnc(NCc2c(-c3ccc(O[C@H]4CCC[C@H](C(=O)O)C4)c(C)n3)nnn2C)n1 [Example 196, (1S,3S)-3-((2-Methyl-6-(1-methyl-5-(((4-methyl-1,3,5-triazin-2-yl)amino)methyl)-1H-1,2,3-triazol-4-yl)pyridin-3-yl)oxy)cyclohexane-1-carboxylic acid]
  IC50: 2190 nM

## CCCCc1ncnc(NCc2c(-c3ccc(O[C@H]4CCC[C@H](C(=O)O)C4)c(C)n3)nnn2C)n1 [Example 199, (1S,3S)-3-((6-(5-(((4-Butyl-1,3,5-triazin-2-yl)amino)methyl)-1-methyl-1H-1,2,3-triazol-4-yl)-2-methyl-pyridin-3-yl)oxy)cyclohexane-1-carboxylic acid]
  IC50: 29 nM

## Cc1nc(-c2nnn(C)c2CNc2ncnc(CC(C)C)n2)ccc1O[C@H]1CCC[C@H](C(=O)O)C1 [Example 200, (1S,3S)-3-((6-(5-(((4-Isobutyl-1,3,5-triazin-2-yl)amino)methyl)-1-methyl-1H-1,2,3-triazol-4-yl)-2-methyl-pyridin-3-yl)oxy)cyclohexane-1-carboxylic acid]
  IC50: 77 nM

## COc1nc(NCc2c(-c3ccc(O[C@H]4CCC[C@H](C(=O)O)C4)c(C)n3)nnn2C)nc(C2CC2)n1 [Example 201, (1S,3S)-3-((6-(5-(((4-Cyclopropyl-6-methoxy-1,3,5-triazin-2-yl)amino)methyl)-1-methyl-1H-1,2,3-triazol-4-yl)-2-methylpyridin-3-yl)oxy)cyclohexane-1-carboxylic acid, bis TFA Salt]
  IC50: 105 nM

## CCOc1nc(NCc2c(-c3ccc(O[C@H]4CCC[C@H](C(=O)O)C4)c(C)n3)nnn2C)nc(C2CC2)n1 [Example 202, (1S,3S)-3-((6-(5-(((4-Cyclopropyl-6-ethoxy-1,3,5-triazin-2-yl)amino)methyl)-1-methyl-1H-1,2,3-triazol-4-yl)-2-methylpyridin-3-yl)oxy) cyclohexane-1-carboxylic acid]
  IC50: 32 nM

## CCc1nc(CC)nc(NCc2c(-c3ccc(O[C@H]4CCC[C@H](C(=O)O)C4)c(C)n3)nnn2C)n1 [Example 203, (1S,3S)-3-((6-(5-(((4,6-Diethyl-1,3,5-triazin-2-yl)amino)methyl)-1-methyl-1H-1,2,3-triazol-4-yl)-2-methyl-pyridin-3-yl)oxy)cyclohexane-1-carboxylic acid]
  IC50: 59 nM

## CCC(C)Cc1ncnc(NCc2c(-c3ccc(O[C@H]4CCC[C@H](C(=O)O)C4)c(C)n3)nnn2C)n1 (stereo partly drawn) [Example 204, (1S,3S)-3-((2-Methyl-6-(1-methyl-5-(((4-(2-methylbutyl)-1,3,5-triazin-2-yl)amino)methyl)-1H-1,2,3-triazol-4-yl)pyridin-3-yl)oxy)cyclohexane-1-carboxylic acid]
  IC50: 106 nM

## Cc1nc(-c2nnn(C)c2CNc2ncnc(CCC(C)C)n2)ccc1O[C@H]1CCC[C@H](C(=O)O)C1 [Example 205, (1S,3S)-3-((6-(5-(((4-Isopentyl-1,3,5-triazin-2-yl)amino)methyl)-1-methyl-1H-1,2,3-triazol-4-yl)-2-methyl-pyridin-3-yl)oxy)cyclohexane-1-carboxylic acid]
  IC50: 40 nM

## Cc1nc(-c2nnn(C)c2CNc2ncnc(CCC(C)(C)C)n2)ccc1O[C@H]1CCC[C@H](C(=O)O)C1 [Example 206, (1S,3S)-3-((6-(5-(((4-(3,3-Dimethylbutyl)-1,3,5-triazin-2-yl)amino)methyl)-1-methyl-1H-1,2,3-triazol-4-yl)-2-methylpyridin-3-yl)oxy)cyclohexane-1-carboxylic acid]
  IC50: 120 nM

## Cc1nc(-c2nnn(C)c2CNc2ncnc(C3(C)CC3)n2)ccc1O[C@H]1CCC[C@H](C(=O)O)C1 [Example 207, (1S,3S)-3-((2-Methyl-6-(1-methyl-5-(((4-(1-methylcyclopropyl)-1,3,5-triazin-2-yl)amino)methyl)-1H-1,2,3-triazol-4-yl)pyridin-3-yl)oxy) cyclohexane-1-carboxylic acid]
  IC50: 53 nM

## CCOc1ncnc(NCc2c(-c3ccc(O[C@H]4CCC[C@H](C(=O)O)C4)c(C)n3)nnn2C)n1 [Example 208, (1S,3S)-3-((6-(5-(((4-Ethoxy-1,3,5-triazin-2-yl)amino)methyl)-1-methyl-1H-1,2,3-triazol-4-yl)-2-methyl-pyridin-3-yl)oxy)cyclohexane-1-carboxylic acid]
  IC50: 89 nM

## CCCCc1nc(C)nc(NCc2c(-c3ccc(O[C@H]4CCC[C@H](C(=O)O)C4)c(C)n3)nnn2C)n1 [Example 209, (1S,3S)-3-((6-(5-(((4-Butyl-6-methyl-1,3,5-triazin-2-yl)amino)methyl)-1-methyl-1H-1,2,3-triazol-4-yl)-2-methylpyridin-3-yl)oxy)cyclohexane-1-carboxylic acid]
  IC50: 62 nM

## Cc1nc(-c2nnn(C)c2CNc2ncnc(OC3CC3)n2)ccc1O[C@H]1CCC[C@H](C(=O)O)C1 [Example 210, (1S,3S)-3-((6-(5-(((4-cyclopropoxy-1,3,5-triazin-2-yl)amino)methyl)-1-methyl-1H-1,2,3-triazol-4-yl)-2-methylpyridin-3-yl)oxy)cyclohexane-1-carboxylic acid]
  IC50: 102 nM

## Cc1nc(-c2nnn(C)c2CNc2ncnc(OC3CCC3)n2)ccc1O[C@H]1CCC[C@H](C(=O)O)C1 [Example 211, (1S,3S)-3-((6-(5-(((4-cyclobutoxy-1,3,5-triazin-2-yl)amino)methyl)-1-methyl-1H-1,2,3-triazol-4-yl)-2-methylpyridin-3-yl)oxy)cyclohexane-1-carboxylic acid]
  IC50: 103 nM

## CCCc1cnnc(NCc2c(-c3ccc(O[C@H]4CCC[C@H](C(=O)O)C4)c(C)n3)nnn2C)c1 [Example 212, (1S,3S)-3-((2-Methyl-6-(1-methyl-5-(((5-propylpyridazin-3-yl)amino)methyl)-1H-1,2,3-triazol-4-yl)pyridin-3-yl)oxy)cyclohexane-1-carboxylic acid]
  IC50: 93 nM

## CCCc1ncnc(NCCc2c(-c3ccc(O[C@H]4CCC[C@H](C(=O)O)C4)c(C)n3)nnn2C)n1 [Example 213, (1S,3S)-3-((2-Methyl-6-(1-methyl-5-(2-((4-propyl-1,3,5-triazin-2-yl)amino)ethyl)-1H-1,2,3-triazol-4-yl)pyridin-3-yl)oxy)cyclohexane-1-carboxylic acid]
  IC50: 1260 nM

From US11267800B2, “Cyclohexyl acid triazole azines as LPA antagonists” (BRISTOL-MYERS SQUIBB COMPANY, priority 2017, dated 2022)
